We go through four molecules from US9475815B2, “Substituted benzothienyl-pyrrolotriazines and uses thereof” (Bayer Intellectual Property GmbH, priority 2012, dated 2016).

The test system of experiment [1] is Human umbilical vein endothelial cells (HUVEC). In words: Inhibition of growth factor-mediated cell proliferation (hFGF-2). It is filed as cell-based. Conditions: Homo sapiens, HUVEC, 72 h, 72 h exposure, hFGF-2 stimulated; from averaged pIC50 values. As for the experimental part: Human umbilical vein endothelial cells (HUVEC) were obtained from Cellsystems (FC-0003) and grown in Vasculife VEGF complete medium (Cellsystems, LL-1020) containing 2% fetal bovine serum (FBS) at 37° C. and 5% CO2. The cells were used for proliferation assays up to passage 7.
The HUVEC cells were harvested using accutase (PAA, L11-007) and seeded in columns 2 to 12 of 96-well plates (Falcon MICROTEST tissue culture plate 96-well flat bottom, BD 353075, or μCLEAR-PLATE, black, 96-well, Greiner Bio-One, No. 655090) at a cell density of 2500 cells/well in 100 μl Vasculife VEGF complete medium with column 1 remaining empty as blank. Cells were allowed to incubate at 37° C. and 5% CO2 for at least 6 h. Then, the cells were washed once with PBS and starved overnight in Vasculife basal medium (Cellsystems, LM-0002) containing heparin, ascorbate and L-glutamine (components of the Vasculife Life Factors Kit, Cellsystems, LL-1020) as well as 0.2% FBS.
After about 18 h, the starving medium was discarded, and the cells were exposed for 72 h to 9 consecutive log or half-log concentrations of test compound in the range of 10 pM to 30 μM and to 5, 10 or 20 ng/ml hFGF-2 (recombinant human FGF basic, R&D Systems, 233-FB) in 100 μl starving medium. 10 mM stock solutions of test compounds in DMSO were diluted to 200× final concentration in DMSO resulting in a final DMSO concentration of 0.5% in all wells. Controls consisted of cells grown in starving medium only and of cells grown in hFGF-2 containing starving medium with 0.5% DMSO. To determine cell proliferation, 5 μl Alamar Blue solution (Biosource, DAL1100) was added to each well (1:20 dilution), and the cells were allowed to incubate for further 4 h at 37° C. and 5% CO2 before measuring fluorescence (ex. 535 nm, em. 595 nm) with a Spectrafluor Plus Tecan plate reader (XFLUOR4 version 4.20). In some experiments, an ATP Determination Kit (BIAFFIN GmbH, LBR-T100) was used according to the manufacturer's instructions. In each experiment, samples were assayed in triplicate, and the standard deviations were determined GraphPad Prism 5 software was used to analyze the data and to obtain IC50 values. All test compounds were assayed 2 to 10 times in independent experiments and similar results were obtained.

The next experiment deals with human mTOR (Homo sapiens (Human), UniProt P42345). The experiment is described as follows: mTOR kinase assay (TR-FRET, for comparative purposes). Conditions: read-out: mTOR % inhibition @ 1 μM, 1 μM test compound, 40 μM ATP, mean values. It counts as biochemical. On the technique in general: TR-FRET usually uses a lanthanide donor and a delayed reading to cut background.

The target in a further experiment is human FGFR-3 (Homo sapiens (Human), UniProt P22607). The experiment is described as follows: FGFR-3 kinase assay (TR-FRET). It is filed as biochemical. The following applies: 10 μM ATP, 15 min pre-incubation with enzyme.
A further experiment concerns the target human FGFR-1 (Homo sapiens, UniProt P11362). In words: FGFR-1 high ATP kinase assay (TR-FRET).

Counter-ions that a name gives are not always drawn.

human mTOR, sequence (P42345 1360-2549): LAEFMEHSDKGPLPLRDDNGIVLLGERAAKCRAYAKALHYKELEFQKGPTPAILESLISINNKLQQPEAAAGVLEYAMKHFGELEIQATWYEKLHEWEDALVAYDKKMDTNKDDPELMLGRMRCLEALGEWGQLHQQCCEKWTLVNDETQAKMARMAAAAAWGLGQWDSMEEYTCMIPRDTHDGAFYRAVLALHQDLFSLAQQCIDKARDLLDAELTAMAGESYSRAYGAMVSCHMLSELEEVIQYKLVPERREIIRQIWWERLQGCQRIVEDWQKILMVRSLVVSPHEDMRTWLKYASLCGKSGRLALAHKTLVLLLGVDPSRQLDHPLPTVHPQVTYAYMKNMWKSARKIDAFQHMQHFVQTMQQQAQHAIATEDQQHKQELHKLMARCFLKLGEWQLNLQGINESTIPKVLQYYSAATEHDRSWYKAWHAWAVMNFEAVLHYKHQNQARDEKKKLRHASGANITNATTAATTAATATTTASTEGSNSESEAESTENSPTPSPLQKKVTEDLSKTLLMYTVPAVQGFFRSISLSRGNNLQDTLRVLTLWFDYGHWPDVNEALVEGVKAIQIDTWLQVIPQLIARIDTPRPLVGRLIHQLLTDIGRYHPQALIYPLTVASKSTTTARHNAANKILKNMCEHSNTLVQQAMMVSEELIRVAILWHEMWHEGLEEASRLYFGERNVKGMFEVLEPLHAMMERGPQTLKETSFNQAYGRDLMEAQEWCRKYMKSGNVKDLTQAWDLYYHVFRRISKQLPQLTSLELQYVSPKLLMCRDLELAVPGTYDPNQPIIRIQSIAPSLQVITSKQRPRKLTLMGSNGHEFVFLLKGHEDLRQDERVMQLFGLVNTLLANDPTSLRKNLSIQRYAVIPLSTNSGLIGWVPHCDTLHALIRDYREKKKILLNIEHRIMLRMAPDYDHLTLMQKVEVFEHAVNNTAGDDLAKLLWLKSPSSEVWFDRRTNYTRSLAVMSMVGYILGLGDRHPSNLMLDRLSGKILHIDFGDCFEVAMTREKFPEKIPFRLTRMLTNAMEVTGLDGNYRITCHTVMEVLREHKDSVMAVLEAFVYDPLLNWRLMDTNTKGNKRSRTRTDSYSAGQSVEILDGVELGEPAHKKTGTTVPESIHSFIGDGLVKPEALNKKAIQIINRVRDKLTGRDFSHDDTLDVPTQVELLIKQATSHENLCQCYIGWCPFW
human FGFR-3, sequence (P22607 397-806): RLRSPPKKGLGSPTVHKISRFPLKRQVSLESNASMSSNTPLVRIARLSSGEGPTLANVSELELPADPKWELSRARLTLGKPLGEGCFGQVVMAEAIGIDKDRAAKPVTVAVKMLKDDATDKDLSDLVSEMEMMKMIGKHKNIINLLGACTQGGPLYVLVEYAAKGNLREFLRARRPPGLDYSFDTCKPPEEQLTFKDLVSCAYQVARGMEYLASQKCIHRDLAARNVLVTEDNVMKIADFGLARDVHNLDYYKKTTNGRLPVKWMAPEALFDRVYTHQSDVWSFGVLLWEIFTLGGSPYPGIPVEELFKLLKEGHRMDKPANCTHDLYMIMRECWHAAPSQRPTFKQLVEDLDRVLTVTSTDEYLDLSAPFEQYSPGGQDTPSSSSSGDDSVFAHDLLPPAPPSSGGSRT
human FGFR-1, sequence (P11362 22-822 limits assumed): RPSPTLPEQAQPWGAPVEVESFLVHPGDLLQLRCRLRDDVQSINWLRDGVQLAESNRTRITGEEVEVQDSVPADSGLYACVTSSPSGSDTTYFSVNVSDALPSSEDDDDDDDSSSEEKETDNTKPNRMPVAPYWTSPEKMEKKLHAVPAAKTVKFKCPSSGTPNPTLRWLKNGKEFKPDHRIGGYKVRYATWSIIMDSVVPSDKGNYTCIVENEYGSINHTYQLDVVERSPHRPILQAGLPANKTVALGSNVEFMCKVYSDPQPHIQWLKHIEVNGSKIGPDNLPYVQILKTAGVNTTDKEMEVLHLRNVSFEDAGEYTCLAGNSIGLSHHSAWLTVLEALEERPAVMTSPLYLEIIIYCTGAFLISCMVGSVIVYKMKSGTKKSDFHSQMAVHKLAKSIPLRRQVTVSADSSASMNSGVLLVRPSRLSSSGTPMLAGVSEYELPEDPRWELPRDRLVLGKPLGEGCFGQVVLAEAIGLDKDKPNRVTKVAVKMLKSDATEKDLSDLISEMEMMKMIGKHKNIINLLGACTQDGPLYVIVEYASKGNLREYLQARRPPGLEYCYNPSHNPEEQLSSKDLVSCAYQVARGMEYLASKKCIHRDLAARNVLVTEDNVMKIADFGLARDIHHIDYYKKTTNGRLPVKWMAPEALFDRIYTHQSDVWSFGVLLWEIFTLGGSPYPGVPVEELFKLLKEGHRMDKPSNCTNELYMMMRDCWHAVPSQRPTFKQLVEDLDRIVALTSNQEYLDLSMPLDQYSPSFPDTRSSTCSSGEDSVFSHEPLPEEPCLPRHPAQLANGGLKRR

As to `COc1cc(C)cc2cc(-c3cc(CN[C@H]4CCNC4=O)n4ncnc(N)c34)sc12` [Example 14], the results for the 50% inhibitory concentration (IC50) (in experiment [1]; against human FGFR-3; against human FGFR-1) were 32 nM, 33.4 nM and 43.6 nM, respectively. Moreover, on human mTOR, the inhibition at 1 µM amounted to 30.6%.

In the case of `COc1cc(C)cc2cc(-c3cc(CN[C@@H]4CCNC4=O)n4ncnc(N)c34)sc12` [Example 6, (3R)-3-({[4-Amino-5-(7-methoxy-5-methyl-1-benzothiophen-2-yl)pyrrolo[2,1-f][1,2,4]triazin-7-yl]methyl}amino)pyrrolidin-2-one dihydrochloride], the results for the IC50 (in experiment [1]; against human FGFR-3; at human FGFR-1) were 22 nM, 21.7 nM and 20.1 nM, respectively. At human mTOR, the inhibition at 1 µM turned out to be 33.5%.

`COc1cc(C)cc2cc(-c3cc(CN4CCOCC4)n4ncnc(N)c34)sc12` [Example 10, 5-(7-Methoxy-5-methyl-1-benzothiophen-2-yl)-7-(morpholin-4-ylmethyl)pyrrolo[2,1-f][1,2,4]-triazin-4-amine]: the figures for the concentration for half-maximal inhibition (IC50) (in experiment [1]; against human FGFR-3; on human FGFR-1) were 21 nM, 77.7 nM and 94.9 nM, respectively. Further, the inhibition at 1 µM on human mTOR was found to be 28.1%.

As for `COc1cc(C)cc2cc(-c3cc(CN4CCNC(C(=O)N(C)C)C4)n4ncnc(N)c34)sc12` (stereo not shown) [Example 17], the 50% inhibitory concentration (IC50) in experiment [1] turned out to be 150 nM; against human FGFR-3, 36.9 nM; against human FGFR-1, 27.3 nM. Further, the inhibition at 1 µM at human mTOR is 34.3%.

Usually IC50 stands for the concentration that inhibits the measured activity by half. A high value points to weaker potency in that assay. By inhibition is commonly meant the change of the read-out against control, counted positive when it falls.
